Earlier results as cited in US20110064816A1 (DR. REDDY'S LABORATORIES LTD., priority 2008, published 2011).
Where a name gives a salt, the structure may show the parent alone.

Details: exposed to heat, moisture, light and low pH conditions

CC(C)c1c(C(=O)Nc2ccccc2)c(-c2ccccc2)c(-c2ccc(F)cc2)n1CC[C@@H](O)C[C@@H](O)CC(=O)O (relative stereo) [Atorvastatin calcium, [R-(R*,R*)]-2-(4-fluorophenyl)-β,δ-dihydroxy-5-(1-methylethyl)-3-phenyl-4-[(phenylamino)carbonyl]-1H-pyrrole-1-heptanoic acid, calcium salt (2:1) trihydrate]
Degradation from the carboxylic form to a lactone form: susceptible to degradation
